This is an account of results in US20140248347A1 (PFIZER INC., priority 2011, published 2014).

The series in a line: Susceptibility of axitinib API to degradation found during drug development. The format is physicochemical. The following applies: active pharmaceutical ingredient.

`CNC(=O)c1ccccc1Sc1ccc2c(/C=C/c3ccccn3)n[nH]c2c1` [axitinib, N-methyl-2-[3-((E)-2-pyridin-2-yl-vinyl)-1H-indazol-6-ylsulfanyl]-benzamide]: the “susceptibility to degradation, including photodegradation” value is reported as “highly susceptible to degradation, including photodegradation”.
